Source: patent EP3807270B1, “NOVEL HETEROARYL HETEROCYCLYL COMPOUNDS FOR THE TREATMENT OF AUTOIMMUNE DISEASE” (F. Hoffmann-La Roche AG, priority 2018, dated 2019)

Target: T1, hTLR9 (Homo sapiens, UniProt Q9NR96)
T1 sequence (Q9NR96 26-1032): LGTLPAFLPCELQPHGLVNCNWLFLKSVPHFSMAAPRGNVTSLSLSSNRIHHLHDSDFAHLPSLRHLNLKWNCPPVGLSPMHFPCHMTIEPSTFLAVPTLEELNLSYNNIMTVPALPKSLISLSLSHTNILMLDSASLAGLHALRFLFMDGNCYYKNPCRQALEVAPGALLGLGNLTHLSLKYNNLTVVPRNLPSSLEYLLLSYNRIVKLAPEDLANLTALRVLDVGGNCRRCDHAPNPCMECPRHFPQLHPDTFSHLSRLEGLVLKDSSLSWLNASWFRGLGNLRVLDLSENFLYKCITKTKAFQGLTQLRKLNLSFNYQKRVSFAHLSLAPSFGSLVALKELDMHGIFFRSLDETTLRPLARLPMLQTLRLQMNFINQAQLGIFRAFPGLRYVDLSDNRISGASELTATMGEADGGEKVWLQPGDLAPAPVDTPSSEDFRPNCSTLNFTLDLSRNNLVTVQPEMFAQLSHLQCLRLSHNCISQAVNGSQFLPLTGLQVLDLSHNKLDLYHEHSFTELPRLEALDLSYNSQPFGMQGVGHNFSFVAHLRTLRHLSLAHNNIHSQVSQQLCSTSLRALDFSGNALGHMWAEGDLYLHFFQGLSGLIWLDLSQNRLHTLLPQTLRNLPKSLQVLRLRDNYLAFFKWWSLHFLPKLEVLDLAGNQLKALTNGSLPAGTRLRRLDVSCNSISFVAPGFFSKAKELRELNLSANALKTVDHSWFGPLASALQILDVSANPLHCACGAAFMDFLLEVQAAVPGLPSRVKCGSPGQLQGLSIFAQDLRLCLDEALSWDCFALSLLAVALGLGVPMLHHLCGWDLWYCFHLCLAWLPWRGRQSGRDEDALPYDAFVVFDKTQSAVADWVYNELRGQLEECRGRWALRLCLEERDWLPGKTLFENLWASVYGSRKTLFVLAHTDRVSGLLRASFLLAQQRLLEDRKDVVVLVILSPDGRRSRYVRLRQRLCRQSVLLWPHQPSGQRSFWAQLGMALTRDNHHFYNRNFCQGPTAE
Experiment: HEK293-Blue-hTLR-9 cells assay (SEAP reporter, ODN2006 stimulation)
Format: cell-based
Parameters: host or cells: HEK293 (HEK-Blue)
Conditions: HEK293-Blue-hTLR9 cells, ODN2006, 20 hrs; read-out: HEK/hTLR9 IC50
How it was run: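 HEK293-Blue-hTLR9 cells (250,000-450,000 cells/mL) in DMEM with 10% FBS were treated with serially diluted compound (1% DMSO final) plus ODN2006 for 20 hrs at 37 °C. Supernatant SEAP activity was measured with QUANTI-Blue substrate for 2 hrs at 37 °C, reading absorbance at 620-655 nm.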

Question: Which IC50 does the source give for C[C@@H]1CN(c2ccc(C#N)c3nccnc23)C[C@H](CN2CCN(c3cc4c(cn3)[C@@H](C)NCC4)CC2)O1 (single isomer, unassigned) [Example 86] here?
Answer: 0.117 µM

Question: How did the IC50 turn out when C[C@@H]1CN(c2ccc(C#N)c3nccnc23)C[C@H](CN2CCN(c3cc4c(cn3)CCN[C@@H]4C)CC2)O1 (single isomer, unassigned) [Example 87] was run?
Answer: 0.097 µM

Question: Which IC50 does the source give for C[C@@H]1CN(c2ccc(C#N)c3nccnc23)C[C@H](CN2CCN(c3cc4c(cn3)CCN[C@H]4C)CC2)O1 (single isomer, unassigned) [Example 88] here?
Answer: 0.073 µM

Question: For [2H]c1nc2c(C#N)ccc(N3C[C@H](CN4CCN(c5cc6c(cn5)[C@H](C)NCC6)CC4)O[C@H](C)C3)c2nc1[2H] (single isomer, unassigned) [Example 94], which IC50 is on record?
Answer: 0.071 µM

Question: [2H]c1nc2c(C#N)ccc(N3C[C@H](CN4CCN(c5cc6c(cn5)[C@@H](C)NCC6)CC4)O[C@H](C)C3)c2nc1[2H] (single isomer, unassigned) [Example 95] was tested. Which IC50 did it give?
Answer: 0.103 µM

Question: Which IC50 does the source give for [2H]c1nc2c(C#N)ccc(N3C[C@H](CN4CCN(c5ccc6c(n5)CN[C@H]6C)CC4)O[C@H](C)C3)c2nc1[2H] (single isomer, unassigned) [Example 96] here?
Answer: 0.116 µM

Question: Which IC50 does the source give for [2H]c1nc2c(C#N)ccc(N3C[C@H](CN4CCN(c5ccc6c(n5)CN[C@@H]6C)CC4)O[C@H](C)C3)c2nc1[2H] (single isomer, unassigned) [Example 97] here?
Answer: 0.11 µM

Question: [2H]c1ccc2c(N3C[C@H](CN4CCN(c5ccc6c(n5)CN[C@@H]6C)CC4)O[C@H](C)C3)ccc(C#N)c2n1 (single isomer, unassigned) [Example 98] was tested. Which IC50 did it give?
Answer: 0.091 µM

Question: With [2H]c1ccc2c(N3C[C@H](CN4CCN(c5ccc6c(n5)CN[C@H]6C)CC4)O[C@H](C)C3)ccc(C#N)c2n1 (single isomer, unassigned) [Example 99] as the molecule, how does the IC50 read?
Answer: 0.069 µM

Question: How did the IC50 turn out when C[C@@H]1CN(c2ccc(C#N)c3ncccc23)C[C@H](CN2CCN(c3ccc4c(c3)CNCC4)CC2)O1 [Example 9, 5-[(2R,6S)-2-methyl-6-[[4-(1,2,3,4-tetrahydroisoquinolin-7-yl)piperazin-1-yl]methyl]morpholin-4-yl]quinoline-8-carbonitrile] was run?
Answer: 0.077 µM

Question: Which IC50 does the source give for C[C@@H]1CN(c2ccc(C#N)c3ncccc23)C[C@H](CN2CCN(c3cnc4c(c3)CNC4)CC2)O1 [Example 10, 5-[(2S,6R)-2-[[4-(6,7-dihydro-5H-pyrrolo[3,4-b]pyridin-3-yl)piperazin-1-yl]methyl]-6-methyl-morpholin-4-yl] quinoline-8-carbonitrile] here?
Answer: 0.053 µM
